# Laboratory results taken from article PMC9668100, “Isovitexin Protects Mice from Methicillin-Resistant Staphylococcus aureus-Induced Pneumonia by Targeting Sortase A” (Journal of Microbiology and Biotechnology, 2022).
# Target: Sortase A (SrtA) (Staphylococcus aureus, UniProt Q2FV99)
# Test: intrinsic fluorescence quenching with purified recombinant SrtA (KA); also FRET inhibition of purified SrtA, IC50 =[…], reversible
# Assay type: binding
# Chain of Sortase A (SrtA) (Q2FV99 whole entry): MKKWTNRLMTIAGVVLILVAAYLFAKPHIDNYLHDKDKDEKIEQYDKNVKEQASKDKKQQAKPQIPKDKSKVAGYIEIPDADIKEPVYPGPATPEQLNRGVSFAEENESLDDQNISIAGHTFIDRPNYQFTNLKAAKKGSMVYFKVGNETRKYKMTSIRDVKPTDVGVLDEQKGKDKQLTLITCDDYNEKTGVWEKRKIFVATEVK
structure (smiles),measurement,value
O=c1cc(-c2ccc(O)cc2)oc2cc(O)c([C@@H]3O[C@H](CO)[C@@H](O)[C@H](O)[C@H]3O)c(O)c12 [isovitexin],Kd,14 µM
